From patent US11904004B2, “Anti-CD277 antibodies” (INSTITUT NATIONAL DE LA SANTE ET DE LA RECHERCHE MEDICALE …, priority 2010, dated 2024)
Values joined by “and” are separate entries in the source; they are usually repeats but may differ in a detail not shown here. Equal entries are not always repeated.

Assays:
Format in all cases: cell-based, human
monocytes = experiment: Apoptosis detection (Annexin V), survival of monocytes; details: plastic-coated mAb or 20 ng/ml GM-CSF, 3 days (72 hours), Annexin V; representative value and range of five experiments
Experimental: (§1) Blood samples were obtained from 5 healthy volunteers enrolled among the staff members, after informed consent. Monocytes were separated from peripheral blood mononuclear cells, and isolated using the MACS CD14 isolation kit (Miltenyi Biotech, Auburn, Calif. USA). Monocytes were cultured for 5 days with 200 ng/ml of recombinant human GM-CSF and 10 ng/ml recombinant human IL-4 (Schering-Plough Research Institute). These cells were termed immature dendritic cells (iDC). To achieve the stimulation, monocytes and iDC were cultured with 10 ng/ml of LPS, ligand for TLR4, 30 μg/ml of 8848 (Sigma-Aldrich, Milano, Italy), ligand for TLR7/8 and with […] of poly (I:C) (Sigma-Aldrich), ligand for TLR3, and were harvested after 48 h. The cells were cultured in RPMI 1640 supplemented with 10% heat-inactivated FCS, 5 mM L-glutamine and 50 IU/ml penicillin-streptomycin (from here on referred to as complete medium).
(§2) Monocytes and iDC were cultured on plastic coated with anti-BT3 mAb (clone 20.1) or with isotype-matched irrelevant mAb. As control, the cells were stimulated with 20 ng/ml recombinant human GM-CSF (Schering-Plough Research Institute). After three days, cells were harvested, stained with Annexin V-FITC (Bender MedSystems, Wien, Austria) and analysed by flow cytometry.

[1] = test system: immature dendritic cells (iDC); experiment: Apoptosis detection (Annexin V), survival of iDC; details: plastic-coated mAb or GM-CSF, 72-h culture, representative value and range of five experiments
Experimental: as §1, §2

primary AML blasts [2] = experiment: Chromium release assay, lysis of primary AML blasts by Vγ9Vδ2 T cells; details: E:T 30:1; ZOL 45 μM O/N, 20.1 mAb 10 μg/ml, BrHpp 2 μM
Experimental: (§3) Effector γδ T cells were established and maintained as previously described^28. PBMC from HV were stimulated with ZOL (1 μm) and rhlL-2 (200 IU/ml) at Day 0. From Day 5, rhIL-2 was renewed every two days and cells were kept at 1.5×10^6/m1 for 15 days. NK cells were isolated using EASYSEP® Human NK cell enrichment kit (StemCell Technologies). The purity of γδ T cells and NK cells was determined by flow cytometry and respectively greater than 80% and 98%. The Burkitt lymphoma cell line, DAUDI, the human AML cell line, U937, and the erythroleukemic cell line, K562, were obtained from the American Type Culture Collection and cultured (0.5×10^6/ml) in RPMI 1640 medium with 10% FCS. BTN3A Knock-down HEK293FT cells (sh #284; clone #30) were provided by E.Scotet (Inserm U892, Nantes), cultured and transfected with BTN3A1, BTN3A2, BTN3A3 mutated cDNA-containing plasmids, as described^23.
(§4) 0.5×10^6 target cells were incubated with 50 pCi of ^51Cr (Perkin-Elmer) for AML blasts and 10 pCi for DAUDI and K562 cells for 90 minutes and mixed with effector cells in a Effector:Target (E:T) ratio of […]. After 4 hours of incubation at 37° C., 50p1 supernatant of each sample was transferred in LUMA® plates and radioactivity was determined by a gamma counter. The percentage of specific lysis was calculated using the formula [(experimental−spontaneous release/total−spontaneous release)×100] and expressed as the mean of triplicate.

primary AML blasts [3] = experiment: Chromium release assay, lysis of primary AML blasts by NK cells
Experimental: as §3, with “BTN3A Knock-down HEK293FT cells (sh #284; clone #30) were provided by E.Scotet (Inserm U892, Nantes), cultured and transfected with BTN3A1, BTN3A2, BTN3A3 mutated cDNA-containing plasmids, as described^23.” left out
as §4

Vγ9Vδ2 T cells = experiment: Activation / CD107 degranulation of expanded Vγ9Vδ2 T cells (phosphoantigen or anti-CD3 stimulation); details: increasing doses of BrHPP alone
Experimental: We used for γδ T cells labelling in purity test after expansion, anti-CD3 PE-Cy7 and anti-Vδ2 FITC mAb (BD Pharmingen). For CD277 characterisation in different subsets PBMC were incubated with the following antibodies and molecules: anti-CD3 PE-Cy5 (BD Pharmingen), anti-CD4 PB (BD Pharmingen), anti-CD8 PB (BD Pharmingen), anti-Vδ2 FITC (BD Pharmingen), anti-CD27 APC ALEXA FLUOR® 750 (CALTAG Laboratory), anti-CCR7 PECy7 (BD Pharmingen), anti-CD28 PE (Beckman Coulter), anti-CD45RA ECD (Beckman Coulter), LIVE/DEAD® Fixable Dead Cell Stain Kit (L34957, Invitrogen) and anti-CD277 labelled with ALEXA FLUOR® 647 (Protein labelling Kit ALEXA FLUOR® 647, Molecular Probes, Invitrogen). […] All samples were measured on FACSCANTO® or FACSARIA® flow cytometers (BD Biosciences) using FACSDIVA® software. […]
PBMC were plated and stimulated as described in the paragraph: cell lines and expansion of γδ T cells, except cells were stimulated with anti-CD277 mAbs (10 μg/ml); or control isotypes (10 μg/ml); and with or without BrHPP at different concentrations. […] Percentages of Vγ9Vδ2 were measured the first day and the last day of culture as described above. […] Activation of degranulation was measured by CD107 labelling assay as described above.

## GM-CSF: recombinant human GM-CSF, survival control [reference compound]
monocytes
  monocytes survived in the absence of endogenous survival factors: 81.22% and 60.41-83%
[1]
  healthy-vital (surviving) iDC: 85.97% and 71.01-85.97%

## O=P(O)(O)C(O)(Cn1ccnc1)P(=O)(O)O [ZOL, Zoledronate, reference compound]
Primary AML blasts [2]
  enhancement of Vγ9Vδ2 T cells lysis of AML blasts compared with BrHpp: significantly more efficient
Primary AML blasts [3]
  NK cells-mediated AML blasts lysis: no effect

## CC(O)(CBr)CCOP(=O)(O)OP(=O)(O)O (centres unmarked) [BrHPP]
Vγ9Vδ2 T cells
  CD107 expression: up to 40%
